Drawing on patent US8148391B2 (Cephalon, Inc., priority 2006, dated 2012), this text covers IC50 for 22 compounds.

pIC50: −log10 of the molar value. Where two headings read alike, the source gives them in different places.

Assay [1] addresses T1, baculovirus-expressed ALK (Homo sapiens, UniProt Q9UM73).
T1 construct: host or cells: baculovirus expression system
The experiment in a line: ALK Kinase Assay (ELISA-type, time-resolved fluorescence). It is filed as biochemical. Put shortly: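 Substrate coating: phospholipase C-γ, 10 μg/mL in TBS. Kinase step: 30 ng/ml ALK, 15 min, 37° C. Detection and analysis: Eu-N1 PT66 antibody, with IC50 fitted as a sigmoidal variable-slope dose-response curve.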

The target in assay [2] is T2, c-Met (cytoplasmic domain) (Homo sapiens, UniProt P08581).
T2 construct: 10 ng/mL c-Met (cytoplasmic domain, Invitrogen Corporation #PV3143); purchased Invitrogen Corporation PV3143
T2 sequence (P08581 956-1390 limits assumed): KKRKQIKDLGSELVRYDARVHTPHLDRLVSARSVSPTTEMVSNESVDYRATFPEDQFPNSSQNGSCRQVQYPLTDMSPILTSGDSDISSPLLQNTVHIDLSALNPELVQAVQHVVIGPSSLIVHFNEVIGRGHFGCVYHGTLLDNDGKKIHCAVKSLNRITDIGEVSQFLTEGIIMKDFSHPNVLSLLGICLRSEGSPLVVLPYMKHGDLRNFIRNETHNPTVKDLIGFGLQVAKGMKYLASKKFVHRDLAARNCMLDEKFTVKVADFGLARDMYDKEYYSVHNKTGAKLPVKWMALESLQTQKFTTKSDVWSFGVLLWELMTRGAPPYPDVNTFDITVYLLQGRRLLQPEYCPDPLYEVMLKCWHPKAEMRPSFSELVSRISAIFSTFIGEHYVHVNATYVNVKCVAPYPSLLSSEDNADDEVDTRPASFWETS
Briefly: c-Met Kinase Assay (same methods as for ALK, with modifications). It is filed as biochemical. Put shortly:
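Wells were coated with 10 μg/mL phospholipase C-γ substrate in TBS, and reactions were started with 10 ng/mL c-Met cytoplasmic domain and run at 37° C for 15 minutes. Phosphorylated product was detected with Eu-N1-labeled PT66 antibody. IC50 values came from sigmoidal variable-slope fits of percent inhibition versus log compound concentration.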

Where [3] appears, read: ALK kinase inhibition, 1 μM ATP (Km level), read-out: ALK Activity.
[4] abbreviates: c-Met kinase inhibition, 1 μM ATP (Km level), read-out: cMet Activity.
Where [5] appears, read: ALK kinase inhibition, 1 μM ATP, read-out: ALK Activity.
Setting [6] is: c-Met kinase inhibition, 1 μM ATP, read-out: cMet Activity.
Setting [7] is: 1 μM ATP (Km level), read-out: ALK Activity (ALK Kinase Inhibition, IC50).
Where [8] appears, read: 1 μM ATP (Km level), read-out: cMet Activity (c-Met Kinase Inhibition, IC50).

T1 sequence (Q9UM73 19-1620): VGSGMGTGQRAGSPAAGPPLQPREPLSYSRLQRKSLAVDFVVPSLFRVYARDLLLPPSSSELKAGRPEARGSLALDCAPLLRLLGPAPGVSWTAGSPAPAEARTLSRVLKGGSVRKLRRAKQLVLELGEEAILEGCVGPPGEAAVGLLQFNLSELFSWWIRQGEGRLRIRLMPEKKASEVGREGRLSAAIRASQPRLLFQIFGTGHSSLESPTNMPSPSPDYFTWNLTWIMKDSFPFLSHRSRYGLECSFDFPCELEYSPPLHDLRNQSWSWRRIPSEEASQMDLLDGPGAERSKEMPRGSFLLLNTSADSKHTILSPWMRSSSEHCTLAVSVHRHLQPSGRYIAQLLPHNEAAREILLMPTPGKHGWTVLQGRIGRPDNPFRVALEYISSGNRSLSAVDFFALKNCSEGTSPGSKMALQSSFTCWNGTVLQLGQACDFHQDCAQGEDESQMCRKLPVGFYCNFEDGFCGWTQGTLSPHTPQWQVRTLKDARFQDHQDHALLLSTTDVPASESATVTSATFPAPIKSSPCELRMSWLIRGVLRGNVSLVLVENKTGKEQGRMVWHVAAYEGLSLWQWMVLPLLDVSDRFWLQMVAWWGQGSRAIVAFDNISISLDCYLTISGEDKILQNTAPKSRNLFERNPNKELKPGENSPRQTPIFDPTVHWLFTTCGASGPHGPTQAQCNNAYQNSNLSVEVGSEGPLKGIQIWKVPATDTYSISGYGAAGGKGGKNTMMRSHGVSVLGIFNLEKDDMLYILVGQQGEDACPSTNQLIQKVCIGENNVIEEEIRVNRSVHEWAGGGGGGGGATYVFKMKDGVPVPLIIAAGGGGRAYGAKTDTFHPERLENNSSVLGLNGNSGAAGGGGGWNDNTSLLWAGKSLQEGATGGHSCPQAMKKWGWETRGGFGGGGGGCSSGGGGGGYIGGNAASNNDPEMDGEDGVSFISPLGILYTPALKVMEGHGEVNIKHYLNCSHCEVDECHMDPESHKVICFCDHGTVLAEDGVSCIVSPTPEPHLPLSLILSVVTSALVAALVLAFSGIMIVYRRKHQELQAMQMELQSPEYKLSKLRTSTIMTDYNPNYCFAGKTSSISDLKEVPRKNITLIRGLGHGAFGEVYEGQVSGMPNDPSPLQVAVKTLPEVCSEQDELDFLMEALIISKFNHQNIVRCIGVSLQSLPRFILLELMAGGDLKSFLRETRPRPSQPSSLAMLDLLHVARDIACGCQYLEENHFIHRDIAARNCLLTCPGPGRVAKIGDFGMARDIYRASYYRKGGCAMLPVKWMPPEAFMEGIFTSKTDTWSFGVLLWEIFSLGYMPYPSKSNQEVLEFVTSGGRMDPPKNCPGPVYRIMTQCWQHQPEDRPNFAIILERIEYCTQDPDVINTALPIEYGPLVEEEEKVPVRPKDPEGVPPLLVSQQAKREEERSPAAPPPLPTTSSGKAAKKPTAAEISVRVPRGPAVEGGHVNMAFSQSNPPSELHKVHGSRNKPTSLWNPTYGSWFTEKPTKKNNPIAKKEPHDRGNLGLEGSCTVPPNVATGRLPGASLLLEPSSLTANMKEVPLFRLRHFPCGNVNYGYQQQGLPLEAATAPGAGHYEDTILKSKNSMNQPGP

In the case of `CCN1CCc2ccc(Nc3ncc(C)c(Nc4ccccc4C(=O)NC)n3)cc2CC1` [Example 191, 2-[2-(3-Ethyl-2,3,4,5-tetrahydro-1H-benzo[d]azepin-7-ylamino)-5-methyl-pyrimidin-4-ylamino]-N-methyl-benzamide], the pIC50 in assay [1] (setting [3]) and in assay [2] (setting [4]) was above 7.00 throughout.

For the compound `CNC(=O)c1ccsc1Nc1nc(Nc2ccc3c(c2)NC(=O)CCC3)ncc1Cl` [Example 1485, 2-[5-Chloro-2-(2-oxo-2,3,4,5-tetrahydro-1H-benzo[b]azepin-8-ylamino)-pyrimidin-4-ylamino]-thiophene-3-carboxylic acid methylamide], the pIC50 in assay [1] (setting [5]) was 5.00 to 6.00; in assay [2] (setting [6]), 6.00 to 7.00.

With `Cc1cccc(C(N)=O)c1Nc1nc(Nc2ccc3c(c2)C(C)(C)CCC(=O)N3)ncc1Cl` [Example 1476, 2-[5-Chloro-2-(5,5-dimethyl-2-oxo-2,3,4,5-tetrahydro-1H-benzo[b]azepin-7-ylamino)-pyrimidin-4-ylamino]-3-methyl-benzamide], the pIC50 in assay [1] (setting [5]) was 6.00 to 7.00; in assay [2] (setting [6]), 5.00 to 6.00.

Take `C#CCN1CCN(C)c2cc(Nc3ncc(Cl)c(Nc4ccccc4C(=O)NC)n3)ccc2C1` [Example 487, 2-[5-Chloro-2-(1-methyl-4-prop-2-ynyl-2,3,4,5-tetrahydro-1H-benzo[e][1,4]diazepin-8-ylamino)-pyrimidin-4-ylamino]-N-methyl-benzamide]: the pIC50 in assay [1] (setting [3]) and in assay [2] (setting [4]) was above 7.00 throughout.

Consider `CN1CCN(C2CCc3ccc(Nc4ncc(Cl)c(N[C@@H]5CCCC[C@H]5NS(C)(=O)=O)n4)cc3CC2)CC1` (stereo partly drawn) [Example 888, N-((1R,2R)-2-{5-Chloro-2-[7-(4-methyl-piperazin-1-yl)-6,7,8,9-tetrahydro-5H-benzocyclohepten-2-ylamino]-pyrimidin-4-ylamino}-cyclohexyl)-methanesulfonamide], for which the pIC50 in assay [1] (setting [7]) is above 7.00; in assay [2] (setting [8]) it was 5.00 to 6.00.

On to `COc1cc2c(cc1Nc1ncc(Cl)c(Nc3ccccc3S(=O)(=O)N3CC[C@@H](O)C3)n1)CCN(C[C@@H](C)O)CC2` [Example 1557, (R)-1-(2-{5-Chloro-2-[3-((R)-2-hydroxy-propyl)-8-methoxy-2,3,4,5-tetrahydro-1H-3-benzazepin-7-ylamino]-pyrimidin-4-ylamino}-benzenesulfonyl)-pyrrolidin-3-ol], for which the figures for the pIC50 in assay [1] (setting [5]) and in assay [2] (setting [6]) were above 7.00 and below 5.00, respectively.

For `COc1cc2c(cc1Nc1ncc(Cl)c(Nc3ccccc3S(=O)(=O)N(C)C)n1)CCN(CC1COCCO1)CC2` (centres unmarked) [Example 637, 2-[5-Chloro-2-(3-[1,4]dioxan-2-ylmethyl-8-methoxy-2,3,4,5-tetrahydro-1H-benzo[d]azepin-7-ylamino)-pyrimidin-4-ylamino]-N,N-dimethyl-benzenesulfonamide], the pIC50 is above 7.00 in assay [1] (setting [7]) and 5.00 to 6.00 in assay [2] (setting [8]).

In the case of `C#CCN1CCN(C)c2cc(Nc3ncc(Cl)c(Nc4ccccc4C(=O)N(C)CC#C)n3)ccc2C1` [Example 488, 2-[5-Chloro-2-(1-methyl-4-prop-2-ynyl-2,3,4,5-tetrahydro-1H-benzo[e][1,4]diazepin-8-ylamino)-pyrimidin-4-ylamino]-N-methyl-N-prop-2-ynyl-benzamide], the pIC50 in assay [1] (setting [3]) and in assay [2] (setting [4]) was above 7.00 each time.

`CN1C(=O)OCCc2cc(Nc3ncc(Cl)c(Nc4cccc5c4OC(F)(F)O5)n3)ccc21` [Example 1768, 2-[5-Chloro-4-(2,2-difluoro-benzo[1,3]dioxol-4-ylamino)-pyrimidin-2-ylamino]-5-methyl-8,9-dihydro-5H-7-oxa-5-aza-benzocyclohepten-6-one]: the results for the pIC50 in assay [1] (setting [5]) and in assay [2] (setting [6]) were 6.00 to 7.00 and 5.00 to 6.00, respectively.

Turning to `CCN1CC2CC1CN2c1ccc(Nc2nc(Nc3cc4c(cc3OC)CCN(CC(=O)N(C)C)CC4)ncc2Cl)c(OC)c1` (centres unmarked) [Example 795, 2-(7-{5-Chloro-4-[4-(5-ethyl-2,5-diaza-bicyclo[2.2.1]hept-2-yl)-2-methoxy-phenylamino]-pyrimidin-2-ylamino}-8-methoxy-1,2,4,5-tetrahydro-benzo[d]azepin-3-yl)-N,N-dimethyl-acetamide], the pIC50 in assay [1] (setting [7]) is above 7.00; in assay [2] (setting [8]), 5.00 to 6.00.

Take `CN([C@@H]1CCCC[C@H]1Nc1nc(Nc2ccc3c(c2)C(C)(C)CCC(=O)N3)ncc1Cl)S(C)(=O)=O` [Example 1674, N-{(1R,2R)-2-[5-Chloro-2-(5,5-dimethyl-2-oxo-2,3,4,5-tetrahydro-1H-benzo[b]azepin-7-ylamino)-pyrimidin-4-ylamino]-cyclohexyl}-N-methyl-methanesulfonamide]: the pIC50 in assay [1] (setting [5]) is above 7.00; in assay [2] (setting [6]) it was 5.00 to 6.00.

For the compound `CNC(=O)c1cccc(F)c1Nc1nc(Nc2ccc3c(c2)NC(=O)CN(CCC(F)(F)F)C3)ncc1Cl` [Example 1861, 2-{5-Chloro-2-[2-oxo-4-(3,3,3-trifluoro-propyl)-2,3,4,5-tetrahydro-1H-benzo[e][1,4]diazepin-8-ylamino]-pyrimidin-4-ylamino}-3-fluoro-N-methyl-benzamide], the figures for the pIC50 in assay [1] (setting [5]) and in assay [2] (setting [6]) were 6.00 to 7.00 and above 7.00, respectively.

Regarding `COc1cc(N2CCOCC2)ccc1Nc1nc(Nc2ccc3c(c2)C2CCC3CN(C(=O)C(F)(F)F)C2)ncc1Cl` (centres unmarked) [Example 290, 2-{4-[5-Chloro-4-(2-methoxy-4-morpholin-4-yl-phenylamino)-pyrimidin-2-ylamino]-10-aza-tricyclo[6.3.2.0*2,7*]trideca-2,4,6-trien-10-yl}-2,2,2-trifluoro-ethanone], the pIC50 in assay [1] (setting [3]) is 6.00 to 7.00; in assay [2] (setting [4]), below 5.00.

In the case of `COc1cc2c(cc1Nc1ncc(Cl)c(N[C@H]3[C@@H](C(N)=O)[C@@H]4C=C[C@H]3C4)n1)CCN(C(=O)C1COCCO1)CC2` (stereo partly drawn) [Example 635, (1S,2S,3R,4R)-3-{5-Chloro-2-[3-([1,4]dioxane-2-carbonyl)-8-methoxy-2,3,4,5-tetrahydro-1H-benzo[d]azepin-7-ylamino]-pyrimidin-4-ylamino}-bicyclo[2.2.1]hept-5-ene-2-carboxylic acid amide], the values for the pIC50 in assay [1] (setting [7]) and in assay [2] (setting [8]) were above 7.00 and below 5.00, respectively.

As to “2-[5-Chloro-2-(4-oxo-1,2,3,4,5,6-hexahydro-benzo[b][1,5]diazocin-8-ylamino)-pyrimidin-4-ylamino]-N-methyl-benzenesulfonamide [Example 1304]”, the pIC50 was above 7.00 in assay [1] (1 μM ATP (Km level), 30 ng/ml ALK, 37° C., 15 minutes, read-out: ALK Activity (ALK kinase inhibition, IC50 class)) and 6.00 to 7.00 in assay [2] (1 μM ATP (Km level), 10 ng/mL c-Met, read-out: cMet Activity (c-Met kinase inhibition, IC50 class)).

On to `COc1cc2c(cc1Nc1ncc(Cl)c(Nc3ccccc3S(=O)(=O)C(C)C)n1)CCN(CC(F)F)CC2` [Example 827, 5-Chloro-N*2*-[3-(2,2-difluoro-ethyl)-8-methoxy-2,3,4,5-tetrahydro-1H-benzo[d]azepin-7-yl]-N*4*-[2-(propane-2-sulfonyl)-phenyl]-pyrimidine-2,4-diamine], for which the pIC50 in assay [1] (setting [7]) was above 7.00; in assay [2] (setting [8]) it was below 5.00.

Turning to `NC(=O)[C@@H]1CCCC[C@H]1Nc1nc(Nc2ccc3c(c2)CCC(NCC(F)(F)F)CC3)ncc1Cl` (some centres unmarked) [Example 653], the results for the pIC50 in assay [1] (setting [7]) and in assay [2] (setting [8]) were above 7.00 and 6.00 to 7.00, respectively.

As to `COc1cc2c(cc1Nc1ncc(Cl)c(Nc3ccccc3S(=O)(=O)C(C)C)n1)CCN(CC(=O)N1CCN(C)CC1)CC2` [Example 1541, 2-(7-{5-Chloro-4-[2-(propane-2-sulfonyl)-phenylamino]-pyrimidin-2-ylamino}-8-methoxy-1,2,4,5-tetrahydro-3-benzazepin-3-yl)-1-(4-methyl-piperazin-1-yl)-ethanone], the pIC50 in assay [1] (setting [5]) is above 7.00; in assay [2] (setting [6]), below 5.00.

For the compound `COCCN1CCc2ccc(Nc3ncc(Cl)c(Nc4cc(C(N)=O)n[nH]4)n3)cc2CC1` [Example 954, 5-{5-Chloro-2-[3-(2-methoxy-ethyl)-2,3,4,5-tetrahydro-1H-3-benzazepin-7-ylamino]-pyrimidin-4-ylamino}-1H-pyrazole-3-carboxylic acid amide], the pIC50 in assay [1] (setting [7]) and in assay [2] (setting [8]) was 6.00 to 7.00 each time.

As to `CN1C(=O)OCCc2cc(Nc3ncc(Cl)c(Nc4ccccc4OCC#N)n3)ccc21` [Example 1748, {2-[5-chloro-2-(5-methyl-6-oxo-5,6,8,9-tetrahydro-7-oxa-5-aza-benzocyclohepten-2-ylamino)-pyrimidin-4-ylamino]-phenoxy}-acetonitrile], the pIC50 in assay [1] (setting [5]) and in assay [2] (setting [6]) was above 7.00 in each case.

For the compound `COc1cc2c(cc1Nc1ncc(Cl)c(Nc3ccccc3S(=O)(=O)N3CC[C@H](N(C)C)C3)n1)CCN(CC(=O)N(C)C)CC2` [Example 846, 2-(7-{5-Chloro-4-[2-((S)-3-dimethylamino-pyrrolidine-1-sulfonyl)-phenylamino]-pyrimidin-2-ylamino}-8-methoxy-1,2,4,5-tetrahydro-benzo[d]azepin-3-yl)-N,N-dimethyl-acetamide], the pIC50 is above 7.00 in assay [1] (setting [7]) and below 5.00 in assay [2] (setting [8]).

As for `CCN1CCN(CC)c2cc(Nc3ncc(Cl)c(Nc4ccccc4-c4nccn4C)n3)ccc2C1` [Example 715, 5-Chloro-N*2*-(1,4-diethyl-2,3,4,5-tetrahydro-1H-benzo[e][1,4]diazepin-8-yl)-N*4*-[2-(1-methyl-1H-imidazol-2-yl)-phenyl]-pyrimidine-2,4-diamine], the figures for the pIC50 in assay [1] (setting [7]) and in assay [2] (setting [8]) were above 7.00 and 6.00 to 7.00, respectively.
